Assay [1] deals with T1, recombinant human CRTH2 receptor (Homo sapiens, UniProt Q9Y5Y4).
T1 construct: expressed in transfected cells
T1 sequence (Q9Y5Y4 1-395): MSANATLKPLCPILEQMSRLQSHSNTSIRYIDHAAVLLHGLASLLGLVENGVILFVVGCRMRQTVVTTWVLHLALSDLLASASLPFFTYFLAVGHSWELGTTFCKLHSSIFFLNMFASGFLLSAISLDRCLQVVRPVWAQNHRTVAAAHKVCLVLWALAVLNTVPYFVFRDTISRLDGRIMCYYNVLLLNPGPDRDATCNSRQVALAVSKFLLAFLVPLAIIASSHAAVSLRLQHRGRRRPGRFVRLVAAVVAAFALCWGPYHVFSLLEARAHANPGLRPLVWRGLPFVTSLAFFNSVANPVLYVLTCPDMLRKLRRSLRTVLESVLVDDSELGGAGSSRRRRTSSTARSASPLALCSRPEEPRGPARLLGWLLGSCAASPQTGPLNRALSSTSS
Put plainly: GTPγS binding assay. Format: biochemical. The conditions noted are these: +HSA; read-out: hDP2 GTPγS μM (+HSA). The protocol:
The ability of a compound to inhibit binding of GTP to DP2 is assessed via a membrane GTPγS assay. CHO cells stably expressing the recombinant human CRTH2 receptor are resuspended in 10 mM Hepes, 7.4 containing 1 mM DTT, lysed and centrifuged at 75,000×g to pellet the membranes. The membranes are resuspended in 10 mM Hepes, 7.4 containing 1 mM DTT and 10% glycerol. Membranes (˜12.5 μg per well) are incubated in 96-well plates with 0.05 nM [^35S]-GTPγS, 80 nM PGD2, 5 μM GDP, and test compound in Assay Buffer (50 mM Hepes, pH 7.4, 100 mM NaCl, 5 mM MgCl2 and 0.2% human serum albumin) for 60 minutes at 30° C. The reactions are terminated by rapid filtration through Whatman GF/B glass fibre filter plates. The filter plates are washed 3 times with 1 ml cold Assay Buffer and dried. Scintillant is then added to the plates and the radioactivity retained on the filters is determined on a Packard TopCount (Perkin Elmer). Specific binding is determined as total radioactive binding minus non-specific binding in the absence of the ligand (80 nM PGD2). IC50s were determined using Graphpad prism analysis of drug titration curves.

In assay [2] the target is T2, human DP1 receptor (Homo sapiens, UniProt Q13258).
T2 construct: tissue Biological Specialty Corporation; host or cells: human platelets, membranes
T2 sequence (Q13258 1-359): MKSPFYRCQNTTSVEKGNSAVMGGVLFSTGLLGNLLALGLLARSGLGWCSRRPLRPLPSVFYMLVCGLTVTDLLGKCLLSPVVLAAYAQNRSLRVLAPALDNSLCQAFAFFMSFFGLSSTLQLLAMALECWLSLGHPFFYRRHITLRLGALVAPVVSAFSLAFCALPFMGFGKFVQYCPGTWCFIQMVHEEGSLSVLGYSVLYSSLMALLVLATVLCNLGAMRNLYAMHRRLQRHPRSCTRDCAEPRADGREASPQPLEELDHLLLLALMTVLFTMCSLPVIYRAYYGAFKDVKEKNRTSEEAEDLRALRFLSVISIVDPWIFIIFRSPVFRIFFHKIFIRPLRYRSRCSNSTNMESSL
Put plainly: DP1 radioligand binding assay using [3H]BWA868C. To be noted: hDP1 binding. The gist of the method: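 Human platelet membranes (20 μg protein/well) incubated 60 min at room temperature with 2 nM [3H]BWA868C in 50 mM Hepes, 10 mM MnCl2, 1 mM EDTA, ±0.2% human serum albumin, pH 7.4. Bound label measured after filtration; nonspecific binding defined with 10 μM BW A868C. IC50 from titration curves.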

Assay [3] has as its target T3, human DP2 receptor (Homo sapiens, UniProt Q9Y5Y4).
T3 construct: expressed in transfected cells
T3 sequence (Q9Y5Y4 1-395): T1 sequence (Q9Y5Y4 1-395)
Put plainly: DP2/CRTH2 radioligand binding assay using [3H]PGD2. To be noted: hDP2 (CRTH2) binding assay. The gist of the method: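 HEK293 membranes with stable recombinant human DP2, incubated with 1 nM [3H]PGD2 and compound 60 min at room temperature in pH 7.4 HEPES/MnCl2/EDTA buffer, with or without 0.2% human serum albumin.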

Molecules are shown by their SMILES.

Turning to `C[C@H]1[C@@H](c2ccccc2)OC(=O)N1Cc1cc(Br)ccc1Oc1cc(Cl)cc(CC(=O)O)c1` [Compound 1-27, {3-[4-Bromo-2-((4S,5R)-4-methyl-2-oxo-5-phenyl-oxazolidin-3-ylmethyl)-phenoxy]-5-chloro-phenyl}-acetic acid], the IC50 in assay [1] was below 0.3 µM; in assay [2] it was below 300 nM; in assay [3] it was below 300 nM.
On to `C[C@H]1[C@@H](c2ccccc2)OC(=O)N1Cc1cc(Br)ccc1Oc1cc(CC(=O)O)cc(C(F)(F)F)c1` [Compound 1-28, {3-[4-Bromo-2-((4S,5R)-4-methyl-2-oxo-5-phenyl-oxazolidin-3-ylmethyl)-phenoxy]-5-trifluoromethyl-phenyl}-acetic acid], for which the IC50 was below 0.3 µM in assay [1], above 1000 nM in assay [2] and below 300 nM in assay [3].
The like results for `C[C@H]1[C@@H](c2ccccc2)OC(=O)N1Cc1cc(Br)ccc1Oc1cc(CC(=O)O)ccc1Cl` [Compound 1-29, {3-[4-Bromo-2-((4S,5R)-4-methyl-2-oxo-5-phenyl-oxazolidin-3-ylmethyl)-phenoxy]-4-chloro-phenyl}-acetic acid] were, in that order, above 1 µM, above 1000 nM and below 300 nM.
With `COc1ccc(CC(=O)O)cc1Oc1ccc(Br)cc1CN1C(=O)O[C@H](c2ccccc2)[C@@H]1C` [Compound 1-30, {3-[4-Bromo-2-((4S,5R)-4-methyl-2-oxo-5-phenyl-oxazolidin-3-ylmethyl)-phenoxy]-4-methoxy-phenyl}-acetic acid], the IC50 is 0.3 to 1 µM in assay [1], above 1000 nM in assay [2] and below 300 nM in assay [3].
On the same counts, the results for `COc1ccc(CC(=O)O)cc1Oc1ccc(Cl)cc1CN1C(=O)O[C@H](c2ccccc2)[C@@H]1C` [Compound 1-31, {3-[4-Chloro-2-((4S,5R)-4-methyl-2-oxo-5-phenyl-oxazolidin-3-ylmethyl)-phenoxy]-4-methoxy-phenyl}-acetic acid] are below 0.3 µM, above 1000 nM and below 300 nM.
As to `COc1ccc(CC(=O)O)cc1Oc1ccc(C(F)(F)F)cc1CN1C(=O)O[C@H](c2ccccc2)[C@@H]1C` [Compound 1-32, {4-Methoxy-3-[2-((4S,5R)-4-methyl-2-oxo-5-phenyl-oxazolidin-3-ylmethyl)-4-trifluoromethyl-phenoxy]-phenyl}-acetic acid], the IC50 was below 0.3 µM in assay [1], above 1000 nM in assay [2] and below 300 nM in assay [3].
Turning to `C[C@H]1[C@@H](c2ccccc2)OC(=O)N1Cc1cc(C(F)(F)F)ccc1Oc1cc(CC(=O)O)ccc1OCc1ccccc1` [Compound 1-33, {4-Benzyloxy-3-[2-((4S,5R)-4-methyl-2-oxo-5-phenyl-oxazolidin-3-ylmethyl)-4-trifluoromethyl-phenoxy]-phenyl}-acetic acid], the IC50 in assay [1] is below 0.3 µM; in assay [2], above 1000 nM; in assay [3] it was below 300 nM.
For the molecule `COc1ccc(CC(=O)O)cc1Oc1ccc(S(C)(=O)=O)cc1CN1C(=O)O[C@H](c2ccccc2)[C@@H]1C` [Compound 1-34, {3-[4-Methanesulfonyl-2-((4S,5R)-4-methyl-2-oxo-5-phenyl-oxazolidin-3-ylmethyl)-phenoxy]-4-methoxy-phenyl}-acetic acid], the IC50 in assay [1] was above 1 µM; in assay [2], above 1000 nM; in assay [3], 300 to 1000 nM.
Turning to `COc1ccc(CC(=O)O)cc1Oc1ccc(-c2ccccc2)cc1CN1C(=O)O[C@H](c2ccccc2)[C@@H]1C` [Compound 1-35, {4-Methoxy-3-[3-((4S,5R)-4-methyl-2-oxo-5-phenyl-oxazolidin-3-ylmethyl)-biphenyl-4-yloxy]-phenyl}-acetic acid], the IC50 in assay [1] was above 1 µM; in assay [2], above 1000 nM; in assay [3], below 300 nM.
In the case of `COc1ccc(CC(=O)O)cc1Oc1ccc(-c2ccc(F)cc2)cc1CN1C(=O)O[C@H](c2ccccc2)[C@@H]1C` [Compound 1-36, {3-[4′-Fluoro-3-((4S,5R)-4-methyl-2-oxo-5-phenyl-oxazolidin-3-ylmethyl)-biphenyl-4-yloxy]-4-methoxy-phenyl}-acetic acid], the IC50 in assay [1] was above 1 µM; in assay [2] it was above 1000 nM; in assay [3], below 300 nM.
The like results for `COc1ccc(CC(=O)O)cc1Oc1ccc(-c2ccccc2OC)cc1CN1C(=O)O[C@H](c2ccccc2)[C@@H]1C` [Compound 1-37, {4-Methoxy-3-[2′-methoxy-3-((4S,5R)-4-methyl-2-oxo-5-phenyl-oxazolidin-3-ylmethyl)-biphenyl-4-yloxy]-phenyl}-acetic acid] were, in that order, below 0.3 µM, above 1000 nM and below 300 nM.
Consider `COc1cccc(-c2ccc(Oc3cc(CC(=O)O)ccc3OC)c(CN3C(=O)O[C@H](c4ccccc4)[C@@H]3C)c2)c1` [Compound 1-38, {4-Methoxy-3-[3′-methoxy-3-((4S,5R)-4-methyl-2-oxo-5-phenyl-oxazolidin-3-ylmethyl)-biphenyl-4-yloxy]-phenyl}-acetic acid], for which the results for the IC50 in assay [1], in assay [2] and in assay [3] were 0.3 to 1 µM, above 1000 nM and below 300 nM, respectively.
On the same counts, the results for `COc1ccc(-c2ccc(Oc3cc(CC(=O)O)ccc3OC)c(CN3C(=O)O[C@H](c4ccccc4)[C@@H]3C)c2)cc1` [Compound 1-39, {4-Methoxy-3-[4′-methoxy-3-((4S,5R)-4-methyl-2-oxo-5-phenyl-oxazolidin-3-ylmethyl)-biphenyl-4-yloxy]-phenyl}-acetic acid] are above 1 µM, above 1000 nM and below 300 nM.
On the same counts, the results for `COc1ccc(CC(=O)O)cc1Oc1ccc(-c2cccnc2)cc1CN1C(=O)O[C@H](c2ccccc2)[C@@H]1C` [Compound 1-40, {4-Methoxy-3-[2-((4S,5R)-4-methyl-2-oxo-5-phenyl-oxazolidin-3-ylmethyl)-4-pyridin-3-yl-phenoxy]-phenyl}-acetic acid] are below 0.3 µM, above 1000 nM and below 300 nM.
On the same counts, the results for `COc1ccc(CC(=O)O)cc1Oc1ccc(-c2ccncc2)cc1CN1C(=O)O[C@H](c2ccccc2)[C@@H]1C` [Compound 1-41, {4-Methoxy-3-[2-((4S,5R)-4-methyl-2-oxo-5-phenyl-oxazolidin-3-ylmethyl)-4-pyridin-4-yl-phenoxy]-phenyl}-acetic acid] are 0.3 to 1 µM, above 1000 nM and below 300 nM.
`COc1ccc(CC(=O)O)cc1Oc1ccc(-c2cn[nH]c2)cc1CN1C(=O)O[C@H](c2ccccc2)[C@@H]1C` [Compound 1-42, {4-Methoxy-3-[2-((4S,5R)-4-methyl-2-oxo-5-phenyl-oxazolidin-3-ylmethyl)-4-(1H-pyrazol-4-yl)-phenoxy]-phenyl}-acetic acid]: the IC50 was below 0.3 µM in assay [1], above 1000 nM in assay [2] and below 300 nM in assay [3].
For `COc1ccc(CC(=O)O)cc1Oc1ccc(-c2cnn(C)c2)cc1CN1C(=O)O[C@H](c2ccccc2)[C@@H]1C` [Compound 1-43, {4-Methoxy-3-[2-((4S,5R)-4-methyl-2-oxo-5-phenyl-oxazolidin-3-ylmethyl)-4-(1-methyl-1H-pyrazol-4-yl)-phenoxy]-phenyl}-acetic acid], the IC50 in assay [1] is 0.3 to 1 µM; in assay [2], above 1000 nM; in assay [3] it was below 300 nM.
On the same counts, the results for `COc1ccc(C(C)C(=O)O)cc1Oc1ccc(C(F)(F)F)cc1CN1C(=O)O[C@H](c2ccccc2)[C@@H]1C` (stereo partly drawn) [Compound 1-44, 2-{4-Methoxy-3-[2-((4S,5R)-4-methyl-2-oxo-5-phenyl-oxazolidin-3-ylmethyl)-4-trifluoromethyl-phenoxy]-phenyl}-propionic acid] are 0.3 to 1 µM, above 1000 nM and below 300 nM.

Values taken from US8242145B2, “Cyclic diaryl ether compounds as antagonists of prostaglandin D2 receptors” (Panmira Pharmaceuticals, LLC, priority 2008, dated 2012).
